Here are results for seven molecules from ChEMBL document CHEMBL1129332, “2-Phenyl-4-quinolinecarboxamides: a novel class of potent and selective non-peptide competitive antagonists for the human neurokinin-3 receptor” (J Med Chem, 1996).

One test has as its target T1, Substance-K receptor (Homo sapiens, UniProt P21452).
T1 sequence (P21452 whole entry): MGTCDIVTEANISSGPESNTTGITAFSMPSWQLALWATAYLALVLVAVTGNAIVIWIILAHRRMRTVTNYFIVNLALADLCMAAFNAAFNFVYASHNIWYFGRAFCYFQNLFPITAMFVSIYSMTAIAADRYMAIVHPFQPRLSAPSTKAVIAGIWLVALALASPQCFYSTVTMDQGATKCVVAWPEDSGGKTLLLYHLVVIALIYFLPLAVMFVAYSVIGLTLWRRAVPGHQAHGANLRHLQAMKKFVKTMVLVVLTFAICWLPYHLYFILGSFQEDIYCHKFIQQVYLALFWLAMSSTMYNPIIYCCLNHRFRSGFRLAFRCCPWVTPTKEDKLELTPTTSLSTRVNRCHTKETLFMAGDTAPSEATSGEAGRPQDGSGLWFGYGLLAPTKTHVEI
Type of test: cell membranes, CHO.

Test [1] has as its target T2, Substance-P receptor (Homo sapiens, UniProt P25103). In words: Binding Affinity of [3H]- substance P towards Tachykinin receptor 1-CHO cell membranes (n=3-8).
Test [2] has as its target T2, Substance-P receptor. In words: Binding affinity against hTachykinin receptor 1 for the displacement of [3H]-substance P binding from Tachykinin receptor 1 CHO membrane. In general terms: Displacement assays read how much labelled ligand stays bound in the presence of the test substance.
The species named for another test is Oryctolagus cuniculus. In words: Antagonism of senktide-induced contraction in rabbit isolated iris sphincter muscle. Type of test: functional.

T2 sequence (P25103 whole entry): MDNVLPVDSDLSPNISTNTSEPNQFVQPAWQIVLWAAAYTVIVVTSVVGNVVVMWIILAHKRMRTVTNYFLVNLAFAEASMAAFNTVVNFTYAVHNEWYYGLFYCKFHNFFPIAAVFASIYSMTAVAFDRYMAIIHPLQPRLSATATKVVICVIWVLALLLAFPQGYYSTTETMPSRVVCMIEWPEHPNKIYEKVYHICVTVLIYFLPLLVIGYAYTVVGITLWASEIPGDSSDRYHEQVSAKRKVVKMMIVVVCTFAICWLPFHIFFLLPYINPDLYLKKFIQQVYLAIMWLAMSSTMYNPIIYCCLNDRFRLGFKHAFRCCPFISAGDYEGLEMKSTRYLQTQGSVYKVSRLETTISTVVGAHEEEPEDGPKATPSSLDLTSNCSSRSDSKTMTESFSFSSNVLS

As for `COC(=O)C(NC(=O)c1cc(-c2ccccc2)nc2ccccc12)c1ccccc1` (configuration not stated), the Ki is 2.95 µM at Substance-K receptor and above 100 µM at Substance-P receptor [1].
For `COc1ccc2c(C(=O)NCc3ccccc3)cc(-c3ccccc3)nc2c1`, the Ki on Substance-P receptor [2] is above 10 µM.
As for `COC(=O)[C@@H](NC(=O)c1cc(-c2ccccc2)nc2ccccc12)c1ccccc1`, the Ki was 1.22 µM on Substance-K receptor and above 100 µM at Substance-P receptor [1].
In the same order, the values of `COC(=O)[C@H](NC(=O)c1cc(-c2ccccc2)nc2ccccc12)c1ccccc1` are 8.33 µM and above 100 µM.
On to `CC[C@H](NC(=O)c1cc(-c2ccccc2)nc2ccccc12)c1ccccc1` [AZD-7624], for which the Ki on Substance-K receptor was 0.237 µM; at Substance-P receptor [1], above 100 µM.
In turn, `CC(=O)N(C)C1(c2ccccc2)CCN(CCC[C@]2(c3ccc(Cl)c(Cl)c3)CCCN(C(=O)c3ccccc3)C2)CC1` [OSANETANT] had a Kb in the test filed under Oryctolagus cuniculus of 0.002 µM.
In the case of `CC[C@H](NC(=O)c1c(C)c(-c2ccccc2)nc2ccccc12)c1ccccc1` [SB-222200], the Ki was 0.277 µM on Substance-K receptor and above 100 µM at Substance-P receptor [1].

Broadly, the Ki is a dissociation constant, usually derived from enzyme kinetics or from competition with a known ligand. Low values mean tighter binding, high ones weaker binding. Broadly, the Kb is the equilibrium dissociation constant of an antagonist, usually derived from a functional assay.
